How the values were obtained:
Type in all cases: cell-based
[1] = test system: Micrococcus luteus (SK58); assay: Carbohydrate Screening Test Method (Biolog phenotype microarray), Bacteria Code E; conditions: Commensal; carbon microarray plate, OD 600 nm, 36 hr, 33° C.; positive = more than 0.05 OD units above zero; blank cell = not utilized
Procedure, shortened: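 Each commensal strain grown in Biolog carbon phenotype microarray plates with single carbohydrate sources. Growth curves fitted with GrowthRates 2.1 to give growth rate and maximum yield. Max yields used to calculate predicted co-culture ratios between Corynebacterium, Staphylococcus and Micrococcus, compared with desired ratios of 1.3, 1.4 and 1.1.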

[2] = test system: Staphylococcus epidermidis (M23864:W2); assay: Carbohydrate Screening Test Method (Biolog phenotype microarray), Bacteria Code J; conditions: Commensal; carbon microarray plate, OD 600 nm, 36 hr, 33° C.; positive = more than 0.05 OD units above zero; blank cell = not utilized
Text: (§1) After creating desired ratios of various commensal skin bacteria in a healthy skin microbiome, 188 different carbohydrate sources were screened as the next step in determining potential prospects for skin microbiota balancing agents. The screening process was set up to determine which carbohydrate sources promoted commensal and/or pathogenic bacteria as well as to obtain individual and combinations of carbohydrate sources that could serve as microbiota balancing agents that can support or maintain the healthy proportions of commensal skin bacteria of Corynebacterium, Staphylococcus, and Micrococcus. The screening was conducted utilizing Biolog phenotype microarray plates (Hayward, Calif.). Table 1 provides a coded list of the commensal and pathogenic skin bacteria that the carbohydrates were screened against.
(§2) The Bacteria Codes B, D, E, I, and J are commensal bacteria and are shaded in Table 2 for references purposes. The bacteria codes were each placed in a carbon microarray plate and screened through the Carbohydrate Screening Test Method, as described in the Test Methods section herein. If a particular bacteria code utilized a specific carbohydrate source as described in the Carbohydrate Screening Test Method, then the corresponding cell in Table 2 was marked with a Y (short for “Yes”).
To do so, the respective microarray data for the 79 carbohydrate sources was run through the GrowthRates 2.1 program to obtain growth parameters, such as growth rates and maximum yield data as described by the Belingham Research Institute, Hall, B. G., H. Acar and M. Barlow. 2014 Growth Rates Made Easy. Mol. Biol. Evol. 31:232-238 doi:10.1093/molbev/mst197. The max yield parameters generated were utilized to calculate ratios of tested commensal bacteria. The ratios calculated were compared back to the desired ratios identified above (Corynebacterium to Staphylococcus of 1.3, Corynebacterium to Micrococcus of 1.4, and Staphylococcus to Micrococcus of 1.1).
As an example of this methodology used to calculate the commensal bacteria ratios and the difference between the calculated ratios and the desired ratios, an example code from Table 3 will be described. […] The max yields were then used to calculate ratios the bacteria would reach in a co-culture.

[3] = test system: Corynebacterium jeikum (ATCC 33033); assay: Carbohydrate Screening Test Method (Biolog phenotype microarray), Bacteria Code B; conditions: Commensal; carbon microarray plate, OD 600 nm, 36 hr, 33° C.; positive = more than 0.05 OD units above zero; blank cell = not utilized
Procedure, shortened: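 Strain from M9*2 agar was suspended in M9*1 medium, washed and inoculated into Biolog PM1/PM2 carbon plates. Carbohydrate use was scored yes/no, and growth rate and maximum yield were derived with GrowthRates 2.1, with max yields used for commensal ratios.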

[4] = test system: Staphylococcus epidermidis (ATCC 14990); assay: Carbohydrate Screening Test Method (Biolog phenotype microarray), Bacteria Code I; conditions: Commensal; carbon microarray plate, OD 600 nm, 36 hr, 33° C.; positive = more than 0.05 OD units above zero; blank cell = not utilized
Text: as §1
Table 2 provides the results of screening various carbohydrate sources against the commensal and pathogenic bacteria codes listed in Table 1. The Bacteria Codes B, D, E, I, and J are commensal bacteria and are shaded in Table 2 for references purposes. The bacteria codes were each placed in a carbon microarray plate and screened through the Carbohydrate Screening Test Method, as described in the Test Methods section herein. If a particular bacteria code utilized a specific carbohydrate source as described in the Carbohydrate Screening Test Method, then the corresponding cell in Table 2 was marked with a Y (short for “Yes”). […] Many of the carbohydrate sources were utilized by both commensal and pathogenic bacteria, and as such, would not provide an advantage for selective growth of the commensal bacteria. However, some of the carbohydrate sources were only used by commensal bacteria and were identified for further testing as described herein.
(§3) The study employed 10 representative skin bacteria; Staphylococcus epidermidis ATCC 14990, Staphylococcus epidermidis M23864:W2, Staphylococcus aureus ATCC 6538, Staphylococcus aureus ATCC 25904 (Newman), Pseudomonas aeruginosa ATCC 9027, Micrococcus luteus ATCC […], Micrococcus luteus SK58, Klebsiella pneumoniae ATCC BAA-2146, Corynebacterium amycolatum SK46, and Corynebacterium minutissimum ATCC 23348. Cultures were started from freezer bead stocks by placing a single bead into 20 mL of tryptic soy broth (TSB) for all organisms except C. amycolatum SK46 and C. minutissimum ATCC 23348, which were placed into brain heart infusion (BHI) broth. Cultures were grown for about 24 hr at 37° C. except M. luteus ATCC 49732 and M. luteus SK58, which were grown at 30° C. A passage of the culture was made using a sterile swab and streaked onto two M9*2 agar plates to prepare the incubated culture for the phenotype microarray pate according to Table 4. Plates were incubated for about 24 hr at 37° C. except for M. luteus ATCC 49732 and M. luteus SK58, which were incubated at 30° C. for 24 hr.
(§4) All cultures were harvested and washed before inoculation into the carbon microarray plate (BiOLOG, Hayward Calif.), with Biolog Plates PM1 and PM2 each having a source definition of Carbon. The bacteria on the M9*2 agar was suspended via agitation with an inoculating loop in 1 mL of M9*1 media for collection in a 1.7 mL micro centrifuge tube, as noted in Table 4. The bacteria was suspended again in M9*1 media, agitated, and collected into the same 1.7 mL microcentrifuge tube used in the previous step. The tube was centrifuged for 5 minutes at 4,000×G, supernatant decanted, the pellet was resuspended in 1 mL of M9*1 media, and vortex. This washing process was repeated for a total of 4 times.
A tenfold dilution in M9*1 media was performed using 1 mL of the washed bacterial culture. Of the tenfold dilution 200 μL was placed in an untreated 96-well plate (Falcon, Pasadena Tx.) for an initial optical density (OD) reading at a wavelength of 600 nm. The OD was used to correlate to colony forming units (CFU) per milliliter by using linear regression lines for each organism. […]

[5] = test system: Klebsiella pneumoniae (ATCC BAA-2146); conditions: Pathogenic; carbon microarray plate, OD 600 nm, 36 hr, 33° C.; positive = more than 0.05 OD units above zero; blank cell = not utilized
[6] = test system: commensal and pathogenic skin bacteria; assay: Carbohydrate Screening Test Method, all bacteria codes tested; conditions: ten bacteria codes of Table 1
Text: as §1, §2, §3, §4
A tenfold dilution in M9*1 media was performed using 1 mL of the washed bacterial culture.

[7] = test system: Pseudomonas aeruginosa (ATCC 9027); conditions: Pathogenic; carbon microarray plate, OD 600 nm, 36 hr, 33° C.; positive = more than 0.05 OD units above zero; blank cell = not utilized
Procedure, shortened: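 Carbon-source utilisation screen on Biolog PM1/PM2 plates: strain grown in TSB then on M9*2 agar, each ~24 h at 37 °C, washed four times in M9*1 and diluted tenfold. OD600 correlated to CFU/mL; each carbohydrate scored Yes when utilised.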

## OC[C@H]1O[C@@H](O[C@@H]2[C@@H](CO)OC(O)(CO)[C@H]2O)[C@H](O)[C@@H](O)[C@H]1O (mixture of isomers) [Lactulose]
[1]
  Carbohydrate Screening Results, Bacteria Code E: Y
[2]
  Carbohydrate Screening Results, Bacteria Code J: Y
[3]
  Carbohydrate Screening Results, Bacteria Code B: Y
[4]
  Carbohydrate Screening Results, Bacteria Code I: Y

## O=C(O)CC(O)C(=O)O (racemic) [D,L-Malic Acid]
[1]
  Carbohydrate Screening Results, Bacteria Code E: Y
[2]
  Carbohydrate Screening Results, Bacteria Code J: Y
[3]
  Carbohydrate Screening Results, Bacteria Code B: Y
[4]
  Carbohydrate Screening Results, Bacteria Code I: Y

## CC(O)C(C)O (stereo not shown) [2,3-Butanediol]
[2]
  Carbohydrate Screening Results, Bacteria Code J: Y
[4]
  Carbohydrate Screening Results, Bacteria Code I: Y

## CC(=O)C(C)O (stereo not shown) [3-Hydroxy 2-Butanone]
[2]
  Carbohydrate Screening Results, Bacteria Code J: Y
[4]
  Carbohydrate Screening Results, Bacteria Code I: Y

## OC[C@H]1O[C@@H](O[C@H]2[C@H](O)[C@@H](O)[C@H](O)O[C@@H]2CO)[C@H](O)[C@@H](O)[C@@H]1O [D-Cellobiose]
[1]
  Carbohydrate Screening Results, Bacteria Code E: Y
[5]
  Carbohydrate Screening Results, Bacteria Code C: Y
[3]
  Carbohydrate Screening Results, Bacteria Code B: Y
[4]
  Carbohydrate Screening Results, Bacteria Code I: Y

## O=C(O)C[C@@H](O)C(=O)O [D-Malic Acid]
[1]
  Carbohydrate Screening Results, Bacteria Code E: Y
[3]
  Carbohydrate Screening Results, Bacteria Code B: Y
[4]
  Carbohydrate Screening Results, Bacteria Code I: Y

## N[C@@H](CCO)C(=O)O [L-Homoserine]
[4]
  Carbohydrate Screening Results, Bacteria Code I: Y

## N[C@@H](CO)C(=O)O [L-Serine]
[1]
  Carbohydrate Screening Results, Bacteria Code E: Y
[2]
  Carbohydrate Screening Results, Bacteria Code J: Y
[3]
  Carbohydrate Screening Results, Bacteria Code B: Y
[4]
  Carbohydrate Screening Results, Bacteria Code I: Y

## COC(=O)C(C)=O [Methyl Pyruvate]
[2]
  Carbohydrate Screening Results, Bacteria Code J: Y
[3]
  Carbohydrate Screening Results, Bacteria Code B: Y
[4]
  Carbohydrate Screening Results, Bacteria Code I: Y

## COC(=O)CCC(=O)O [Mono Methyl Succinate]
[1]
  Carbohydrate Screening Results, Bacteria Code E: Y
[3]
  Carbohydrate Screening Results, Bacteria Code B: Y
[4]
  Carbohydrate Screening Results, Bacteria Code I: Y

## O=C(O)C(=O)O [Oxalic Acid]
[2]
  Carbohydrate Screening Results, Bacteria Code J: Y
[4]
  Carbohydrate Screening Results, Bacteria Code I: Y

## O=C(O)CCCCCCCCC(=O)O [Sebacic Acid]
[2]
  Carbohydrate Screening Results, Bacteria Code J: Y
[4]
  Carbohydrate Screening Results, Bacteria Code I: Y

## O=C(CO)[C@@H](O[C@H]1O[C@H](CO)[C@@H](O)[C@H](O)[C@H]1O)[C@H](O)[C@H](O)CO [Turanose]
[4]
  Carbohydrate Screening Results, Bacteria Code I: Y

## OC[C@@H](O)[C@@H](O)CO [i-Erythritol]
[6]
  utilization by the bacteria codes tested: not utilized by any of the bacteria

## O=C(O)Cc1ccc(O)cc1 [p-hydroxy phenyl acetic acid]
[6]
  utilization by the bacteria codes tested: not utilized by any of the bacteria

## O=C(O)CCCO [y-Hydroxy Butyric Acid]
[6]
  utilization by the bacteria codes tested: not utilized by any of the bacteria

## OC[C@H]1O[C@@H]2O[C@H]3[C@H](O)[C@@H](O)[C@@H](O[C@H]4[C@H](O)[C@@H](O)[C@@H](O[C@H]5[C@H](O)[C@@H](O)[C@@H](O[C@H]6[C@H](O)[C@@H](O)[C@@H](O[C@H]7[C@H](O)[C@@H](O)[C@@H](O[C@H]1[C@H](O)[C@H]2O)O[C@@H]7CO)O[C@@H]6CO)O[C@@H]5CO)O[C@@H]4CO)O[C@@H]3CO [α-Cyclodextrin]
[2]
  Carbohydrate Screening Results, Bacteria Code J: Y
[4]
  Carbohydrate Screening Results, Bacteria Code I: Y

## CCCC(=O)C(=O)O [α-Keto-Valeric Acid]
[6]
  utilization by the bacteria codes tested: not utilized by any of the bacteria

## CO[C@H]1O[C@H](CO)[C@@H](O)[C@H](O)[C@H]1O [α-Methyl-D-Glucoside]
[6]
  utilization by the bacteria codes tested: not utilized by any of the bacteria

## OC[C@H]1O[C@@H](O)[C@H](O)[C@H](O)[C@@H]1O [β-D-Allose]
[6]
  utilization by the bacteria codes tested: not utilized by any of the bacteria

## CC(O)CC(=O)O (stereo not drawn) [β-Hydroxy Butyric Acid]
[7]
  Carbohydrate Screening Results, Bacteria Code F: Y
[4]
  Carbohydrate Screening Results, Bacteria Code I: Y

## COC1OCC(O)C(O)C1O [β-Methyl-D-Xyloside]
[6]
  utilization by the bacteria codes tested: not utilized by any of the bacteria

## NCCCC(=O)O [γ-Amino Butyric Acid]
[2]
  Carbohydrate Screening Results, Bacteria Code J: Y
[4]
  Carbohydrate Screening Results, Bacteria Code I: Y

## Glycogen
[6]
  utilization by the bacteria codes tested: not utilized by any of the bacteria

## Inulin
[2]
  Carbohydrate Screening Results, Bacteria Code J: Y
[4]
  Carbohydrate Screening Results, Bacteria Code I: Y

## Laminarin
[6]
  utilization by the bacteria codes tested: not utilized by any of the bacteria

## Pectin
[2]
  Carbohydrate Screening Results, Bacteria Code J: Y
[4]
  Carbohydrate Screening Results, Bacteria Code I: Y

## Tween 20
[6]
  utilization by the bacteria codes tested: not utilized by any of the bacteria

## Tween 80
[1]
  Carbohydrate Screening Results, Bacteria Code E: Y
[3]
  Carbohydrate Screening Results, Bacteria Code B: Y
[4]
  Carbohydrate Screening Results, Bacteria Code I: Y
